Reference: article PMC9503767, “Site-Differentiated Iron–Sulfur Cluster Ligation Affects Flavin-Based Electron Bifurcation Activity” (Metabolites, 2022)

Biological target: T1, NfnL (large subunit of NADH-dependent reduced-ferredoxin: NADP+ oxidoreductase NfnSL) (Pyrococcus furiosus, UniProt Q8U195, E126C)
T1 construct: gene sudA; isolated NfnL subunit
Assay: intrinsic protein fluorescence quenching titration (ex […] nm, em […] nm), quadratic tight-binding fit

T1 sequence (Q8U195 whole entry E126C): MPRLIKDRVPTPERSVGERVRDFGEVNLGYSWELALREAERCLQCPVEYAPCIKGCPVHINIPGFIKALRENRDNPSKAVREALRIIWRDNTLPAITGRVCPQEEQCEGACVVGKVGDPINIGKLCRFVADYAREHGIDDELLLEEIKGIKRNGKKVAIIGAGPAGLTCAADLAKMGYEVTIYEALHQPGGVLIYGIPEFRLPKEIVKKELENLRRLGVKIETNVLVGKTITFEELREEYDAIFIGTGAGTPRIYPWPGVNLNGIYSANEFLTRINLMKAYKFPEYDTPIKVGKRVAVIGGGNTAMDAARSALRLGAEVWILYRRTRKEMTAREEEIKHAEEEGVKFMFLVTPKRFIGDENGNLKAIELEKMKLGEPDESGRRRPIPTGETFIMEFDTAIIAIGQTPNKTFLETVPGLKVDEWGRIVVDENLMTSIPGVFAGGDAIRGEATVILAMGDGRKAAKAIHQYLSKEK

| Structure (SMILES) | Kd [nM] |
| --- | --- |
| NC(=O)C1=CN([C@@H]2O[C@H](COP(=O)(O)OP(=O)(O)OC[C@H]3O[C@@H](n4cnc5c(N)ncnc54)[C@H](OP(=O)(O)O)[C@@H]3O)[C@@H](O)[C@H]2O)C=CC1 [NADPH] | 2600 ± 600 |
| NC(=O)c1ccc[n+]([C@@H]2O[C@H](COP(=O)([O-])OP(=O)(O)OC[C@H]3O[C@@H](n4cnc5c(N)ncnc54)[C@H](OP(=O)(O)O)[C@@H]3O)[C@@H](O)[C@H]2O)c1 [NADP+] | 2600 ± 600 |
